The text below walks through data of patent publication US7320996B2, “Indolinone protein kinase inhibitors and cyclooxygenase inhibitors for use in combination therapy for the treatment of cancer” (Sugen, Inc, priority 2001, dated 2008).

One test concerns Lewis Lung tumors. The test can be described thus: Lewis Lung Model. The format is in vivo, mice.
Test [1] concerns HT-29 human colon cancer cells. Nature of the test: HT-29 Model. The format is in vivo, nude mice. The method, then: Mice were injected subcutaneously in the left paw (1×10^6 tumor cells suspended in 30% Matrigel) and tumor volume was evaluated using a phlethysmometer twice a week for 30-60 days. Implantation of human colon cancer cells (HT-29) into nude mice produces tumors that will reach 0.6-2 ml between 30-50 days. […] The data are expressed as the mean+/−SEM. Student's and Mann-Whitney tests were used to assess differences between means using the InStat software package.
The efficacy of both agents were determined by measuring tumor volume.

The target in a further test is T1, GST-Flk1 (Mus musculus, UniProt P35918).
T1 construct: GST-Flk1cd purified from sf9 recombinant baculovirus transformation (SUGEN, Inc.); host or cells: Sf9 (baculovirus)
Nature of the test: GST-FLK-1 bioassay (bio flkGST), ELISA. The format is biochemical. On the technique in general: ELISA stands for enzyme-linked immunosorbent assay.

For another test, the target named is T2, EGFR (A431 cell lysate) (Homo sapiens, UniProt P00533).
T2 construct: A431 cell lysate (SUGEN, Inc.); host or cells: A431
Nature of the test: EGFR bioassay, ELISA. It is filed as biochemical. The note with it: read-out: bio EGF IC50.

Test [2] deals with T3, PDGFR-β (NIH 3T3 cell lysate) (Homo sapiens, UniProt P09619).
T3 construct: host or cells: NIH 3T3
The test can be described thus: PDGFR bioassay, ELISA. Conditions: read-out: bio PDGF IC50. It is filed as biochemical.
Procedure: Corning 96-well Elisa plates • 2. 28D4C10 monoclonal anti-PDGFR antibody (SUGEN, Inc.). • 3. PBS. • 4. TBST Buffer. • 5. Blocking Buffer (same as for EGFR bioassay). • 6. PDGFR-β expressing NIH 3T3 cell lysate (SUGEN, Inc.). • 7. TBS Buffer. • 8. TBS+10% DMSO. • 9. ATP. • 10. MnCl2. • 11. Kinase buffer phosphorylation mix: for 10 ml, mix 250 μl 1M TRIS, 200 μl 5M NaCl, 100 μl 1M MnCl2 and 50 μl 100 mM Triton X-100 in enough dH2O to make 10 ml. • 12. NUNC 96-well V bottom polypropylene plates. • 13. EDTA. • 14. Rabbit polyclonal anti-phosphotyrosine serum (SUGEN, Inc.). • 15. Goat anti-rabbit IgG peroxidase conjugate (Biosource Cat. No. ALI0404). • 16. ABTS. • 17. Hydrogen peroxide, 30% solution. • 18. ABTS/H2O2. • 19. 0.2 M HCl. Procedure: • 1. Coat Corning 96 well ELISA plates with 0.5 μg 28D4C10 in 100 μl PBS per well, store overnight at 4° C. • 2. Remove unbound 28D4C10 from wells by inverting plate to remove liquid. • Wash 1×with dH2O. Pat the plate on a paper towel to remove excess liquid. • 3. Add 150 μl of Blocking Buffer to each well. Incubate for 30 min. at room temperature with shaking. • 4. Wash plate 3×with deionized water, then once with TBST. Pat plate on a paper towel to remove excess liquid and bubbles. • 5. Dilute lysate in HNTG (10 μg lysate/100 μl HNTG). • 6. Add 100 μl of diluted lysate to each well. Shake at room temperature for 60 min. • 7. Wash plates as described in Step 4. • 8. Add 80 μl working kinase buffer mix to ELISA plate containing captured PDGFR. • 9. […] Add 10 μl diluted test compound to ELISA plate. To control wells, add 10 μl TBS+10% DMSO. Incubate with shaking for 30 minutes at room temperature. • 11. Add 10 μl ATP directly to all wells except negative control well (final well volume should be approximately 100 μl with 20 μM ATP in each well.) Incubate 30 minutes with shaking. • 12. Stop reaction by adding 10 μl of EDTA solution to each well. • 13. Wash 4×with deionized water, twice with TBST. • 14. Add 100 μl anti-phosphotyrosine (1:3000 dilution in TBST) per well. Incubate with shaking for 30-45 min. at room temperature. • 15. Wash as in Step 4. • 16. […] Incubate with shaking for 30 min. at room temperature. • 17. Wash as in Step 4. • 18. Add 100 μl of ABTS/H2O2 solution to each well. • 19. Incubate 10 to 30 minutes with shaking. Remove any bubbles. • 20. If necessary stop reaction with the addition of 100 μl 0.2 M HCl per well. • 21.

Test [3] deals with T4, HER-2 kinase (EGFr/HER-2 chimera/3T3-C7 cell line) (Homo sapiens, UniProt P04626).
T4 construct: fused on or other part: EGFR extracellular part, stimulated by EGF and captured by the anti-EGFR antibody SUMO1; P00533 (Epidermal growth factor receptor)
The test can be described thus: Cellular HER-2 kinase assay, whole-cell ELISA. It is filed as cell-based. Conditions: read-out: Her2 Kinase IC50.
Procedure: This assay is used to measure HER-2 kinase activity in whole cells in an ELISA format.
Fetal Bovine Serum (FBS, GIBCO Catalog #16000-044), heat inactivated in a water bath for 30 min. at 56° C. • 3. […] PBS. • 9. […] Corning 96-well ELISA Plates. • 12. NUNC 96-well V bottom polypropylene plates. • 13. […] SUMO 1: monoclonal anti-EGFR antibody (SUGEN, Inc.). • 15. TBST Buffer. • 16. Blocking Buffer: 5% Carnation Instant Milk® in PBS. • 17. […] Suspend powder in 100 uL of 10 mM HCl. Add 100 uL 10 mM NaOH. Add 800 uL PBS and transfer to an Eppendorf tube, store at −20° C. until ready to use. • 18. […] EDTA. • 20. Na3VO4. […] Boil in microwave for one minute (solution becomes clear). • Cool to room temperature. Adjust pH to 10. Repeat heating/cooling cycle until pH remains at 10. • 21. 200 mM Na4P2O7. • 22. Rabbit polyclonal antiserum specific for phosphotyrosine (anti-Ptyr antibody, SUGEN, Inc.). • 23. Affinity purified antiserum, goat anti-rabbit IgG antibody, peroxidase conjugate (Biosource Cat #ALI0404). • 24. ABTS Solution. • 25. 30% Hydrogen peroxide solution. • 26. ABTS/H2O2. • 27. 0.2 M HCl. Procedure: • 1. Coat Corning 96 well ELISA plates with SUMO1 at 1.0 ug per well in PBS, 100 ul final volume/well. Store overnight at 4° C. • 2. On day of use, remove coating buffer and wash plate 3 times with dH2O and once with TBST buffer. All washes in this assay should be done in this manner, unless otherwise specified. • 3. Add 100 ul of Blocking Buffer to each well. Incubate plate, with shaking, for 30 min. at room temperature. Just prior to use, wash plate. • 4. Use EGFr/HER-2 chimera/3T3-C7 cell line for this assay. • 5. Choose dishes having 80-90% confluence. Collect cells by trypsinization and centrifuge at 1000 rpm at room temperature for 5 min. • 6. Resuspend cells in starve medium and count with trypan blue. Viability above 90% is required. Seed cells in starve medium at a density of 2,500 cells per well, 90 ul per well, in a 96 well microtiter plate. Incubate seeded cells overnight at 37° under 5% CO2. • 7. Start the assay two days after seeding. • 8. Test compounds are dissolved in 4% DMSO. Samples are then further diluted directly on plates with starve-DMEM. Typically, this dilution will be 1:10 or greater. […] Incubate at 37° C. for 10 min. • 13. Remove test compound, EGF, and DMEM. Wash cells once with PBS. • 14. Transfer HNTG* to cells, 100 ul per well. Place on ice for 5 minutes. • Meanwhile, remove blocking buffer from ELISA plate and wash. • 15. Scrape cells from plate with a micropipettor and homogenize cell material by repeatedly aspirating and dispensing the HNTG* lysis buffer. Transfer lysate to a coated, blocked, washed ELISA plate. Or, use a Costar transfer cartridge to transfer lysate to the plate. • 16. Incubate, with shaking, at room temperature for 1 hr. • 17. Remove lysate, wash. Transfer freshly diluted anti-Ptyr antibody (1:3000 in TBST) to ELISA plate, 100 ul per well. • 18. Incubate, with shaking, at room temperature, for 30 min. • 19. Remove anti-Ptyr antibody, wash. Transfer freshly diluted BIOSOURCE antibody to ELISA plate (1:8000 in TBST, 100 ul per well). • 20. Incubate, with shaking, at room temperature for 30 min. • 21. Remove BIOSOURCE antibody, wash. Transfer freshly prepared ABTS/H2O2 solution to ELISA plate, 100 ul per well. • 22. […] Remove any bubbles. • 23. Stop reaction with the addition of 100 ul of 0.2M HCl per well. • 24.

The target in another test is T5, human cdk2/cyclin A (Homo sapiens, UniProt P24941).
T5 construct: host or cells: Sf9
Nature of the test: CDK2/cyclin A scintillation proximity assay (cdk2spa). The note with it: read-out: cdk2spa C50. It is filed as biochemical. In general terms: SPA uses beads or plates that emit light when radiolabelled molecules are held near them.

A further test concerns the target EGFR (Homo sapiens, UniProt P00533). Nature of the test: cell EGF assay. The format is cell-based. The method, then: Several of the assays described herein are performed in an ELISA (Enzyme-Linked Immunosorbent […]) format (Voller, et al, 1980, “Enzyme-Linked Immunosorbent Assay,” Manual of Clinical Immunology, 2d ed., Rose and Friedman, Am. Soc. Of Microbiology, Washington, D.C., pp. 359-371). The general procedure is as follows: a compound of Formula (I) is introduced to cells expressing the test kinase, either naturally or recombinantly, for a selected period of time after which, if the test kinase is a receptor, a ligand known to activate the receptor is added. The cells are lysed and the lysate is transferred to the wells of an ELISA plate previously coated with a specific antibody recognizing the substrate of the enzymatic phosphorylation reaction. Non-substrate components of the cell lysate are washed away and the amount of phosphorylation on the substrate is detected with an antibody specifically recognizing phosphotyrosine compared with control cells that were not contacted with a test compound.
Specifically, the results shown indicate the concentration of a test compound needed to cause a 50% reduction of the activity of the target PTK. Bioassays which have been or can be used to evaluate compounds are described in detail below.

T2 sequence (P00533 25-1210): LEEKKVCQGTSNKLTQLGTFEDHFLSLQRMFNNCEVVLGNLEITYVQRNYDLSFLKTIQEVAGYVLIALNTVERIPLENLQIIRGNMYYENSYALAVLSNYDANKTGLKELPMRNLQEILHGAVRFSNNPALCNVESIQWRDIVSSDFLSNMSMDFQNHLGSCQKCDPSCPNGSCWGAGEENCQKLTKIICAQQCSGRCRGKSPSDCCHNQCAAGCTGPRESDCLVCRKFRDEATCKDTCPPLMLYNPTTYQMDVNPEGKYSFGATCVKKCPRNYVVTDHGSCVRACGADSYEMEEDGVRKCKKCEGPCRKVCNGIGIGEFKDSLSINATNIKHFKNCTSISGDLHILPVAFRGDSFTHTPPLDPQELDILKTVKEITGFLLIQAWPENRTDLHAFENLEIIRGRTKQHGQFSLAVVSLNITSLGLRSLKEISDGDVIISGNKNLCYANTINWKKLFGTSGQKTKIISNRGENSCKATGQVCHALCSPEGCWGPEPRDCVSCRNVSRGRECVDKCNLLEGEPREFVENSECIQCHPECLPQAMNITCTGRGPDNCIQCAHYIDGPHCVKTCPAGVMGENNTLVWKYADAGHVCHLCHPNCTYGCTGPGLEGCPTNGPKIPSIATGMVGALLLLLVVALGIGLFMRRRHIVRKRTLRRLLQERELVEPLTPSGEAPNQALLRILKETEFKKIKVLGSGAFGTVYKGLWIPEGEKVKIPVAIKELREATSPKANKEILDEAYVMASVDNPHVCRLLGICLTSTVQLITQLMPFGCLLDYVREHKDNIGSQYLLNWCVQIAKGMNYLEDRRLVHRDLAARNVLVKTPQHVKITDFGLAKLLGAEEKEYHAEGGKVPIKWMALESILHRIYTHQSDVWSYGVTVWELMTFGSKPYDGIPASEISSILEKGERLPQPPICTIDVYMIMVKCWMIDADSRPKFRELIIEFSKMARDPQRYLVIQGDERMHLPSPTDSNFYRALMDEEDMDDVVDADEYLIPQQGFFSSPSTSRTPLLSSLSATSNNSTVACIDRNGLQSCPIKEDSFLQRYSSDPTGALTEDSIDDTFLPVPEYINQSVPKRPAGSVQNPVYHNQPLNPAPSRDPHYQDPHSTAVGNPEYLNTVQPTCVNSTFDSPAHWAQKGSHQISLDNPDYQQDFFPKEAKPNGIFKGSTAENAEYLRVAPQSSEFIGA
Chain of EGFR (P00533 25-1210, species assumed): as the sequence (P00533 25-1210) above
T3 sequence (P09619 33-1106): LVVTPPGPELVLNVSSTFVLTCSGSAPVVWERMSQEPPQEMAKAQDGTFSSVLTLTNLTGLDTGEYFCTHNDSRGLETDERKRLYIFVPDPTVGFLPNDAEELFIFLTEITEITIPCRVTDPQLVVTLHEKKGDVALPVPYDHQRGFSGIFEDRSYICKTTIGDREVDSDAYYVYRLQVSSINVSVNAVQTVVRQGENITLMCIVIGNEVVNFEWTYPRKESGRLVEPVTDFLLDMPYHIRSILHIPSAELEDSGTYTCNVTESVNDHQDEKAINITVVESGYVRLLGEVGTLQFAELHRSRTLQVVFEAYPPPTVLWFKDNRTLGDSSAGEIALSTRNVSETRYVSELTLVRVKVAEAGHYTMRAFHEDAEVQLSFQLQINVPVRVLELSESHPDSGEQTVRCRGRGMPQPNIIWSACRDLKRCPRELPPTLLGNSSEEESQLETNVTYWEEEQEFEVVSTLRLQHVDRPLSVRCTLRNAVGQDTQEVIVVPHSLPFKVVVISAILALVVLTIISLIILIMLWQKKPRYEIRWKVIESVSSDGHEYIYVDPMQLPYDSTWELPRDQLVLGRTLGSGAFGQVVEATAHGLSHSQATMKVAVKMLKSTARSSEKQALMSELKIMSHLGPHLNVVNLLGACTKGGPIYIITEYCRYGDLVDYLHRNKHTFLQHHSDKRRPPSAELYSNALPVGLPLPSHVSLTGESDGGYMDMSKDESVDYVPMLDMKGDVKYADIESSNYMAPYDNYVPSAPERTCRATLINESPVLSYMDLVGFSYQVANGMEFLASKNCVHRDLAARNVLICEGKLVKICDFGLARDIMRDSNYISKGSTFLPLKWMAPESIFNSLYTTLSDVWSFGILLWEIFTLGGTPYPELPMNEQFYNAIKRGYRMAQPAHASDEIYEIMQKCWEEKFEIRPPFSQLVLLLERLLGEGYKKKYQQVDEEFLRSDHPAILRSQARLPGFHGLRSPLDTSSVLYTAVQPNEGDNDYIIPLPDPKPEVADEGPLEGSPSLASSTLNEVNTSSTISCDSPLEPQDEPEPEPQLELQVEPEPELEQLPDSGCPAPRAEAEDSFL
T1 sequence (P35918 784-1345 limits assumed): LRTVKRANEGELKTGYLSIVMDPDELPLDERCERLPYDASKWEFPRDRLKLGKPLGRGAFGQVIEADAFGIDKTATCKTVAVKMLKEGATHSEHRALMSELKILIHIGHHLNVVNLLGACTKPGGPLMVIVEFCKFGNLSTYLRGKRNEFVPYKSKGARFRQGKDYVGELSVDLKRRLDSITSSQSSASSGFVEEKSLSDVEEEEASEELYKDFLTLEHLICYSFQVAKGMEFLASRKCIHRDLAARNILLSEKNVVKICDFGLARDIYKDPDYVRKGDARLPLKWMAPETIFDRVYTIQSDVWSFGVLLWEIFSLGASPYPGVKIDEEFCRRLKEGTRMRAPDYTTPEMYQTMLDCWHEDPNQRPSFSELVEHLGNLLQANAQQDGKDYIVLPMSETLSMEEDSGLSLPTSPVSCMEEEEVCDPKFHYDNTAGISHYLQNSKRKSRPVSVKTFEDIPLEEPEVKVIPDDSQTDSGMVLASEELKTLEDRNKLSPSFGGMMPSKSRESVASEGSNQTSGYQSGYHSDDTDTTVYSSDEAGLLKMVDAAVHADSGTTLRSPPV
T4 sequence (P04626 720-987 limits assumed, change not shown): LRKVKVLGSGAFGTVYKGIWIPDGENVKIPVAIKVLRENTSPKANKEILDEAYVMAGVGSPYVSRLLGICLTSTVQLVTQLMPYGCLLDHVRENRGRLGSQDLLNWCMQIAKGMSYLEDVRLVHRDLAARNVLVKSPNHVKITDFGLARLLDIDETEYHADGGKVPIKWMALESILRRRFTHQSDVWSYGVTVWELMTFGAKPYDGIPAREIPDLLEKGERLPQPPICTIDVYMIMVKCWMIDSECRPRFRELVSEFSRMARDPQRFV
Procedure for EGFR (A431 cell lysate): This assay is used to the in vitro kinase activity of FGF1-R in an ELISA assay.
Corning 96-well Elisa plates. • 2. SUMOL1 monoclonal anti-EGFR antibody (SUGEN, Inc.). • 3. PBS • 4. TBST Buffer • 5. Blocking Buffer: for 100 ml, mix 5.0 g Carnation Instant Non-fat Milk® with 100 ml of PBS. • 6. A431 cell lysate (SUGEN, Inc.). • 7. TBS Buffer: • 8.
bring to 1 liter total volume with dH2O. • 9. […] This reagent should be made up immediately prior to use and kept on ice. • 10. 1.0 mM MnCl2. • 11. […] Prepare just prior to use, keep on ice. • 12. NUNC 96-well V bottom polypropylene plates. • 13. EDTA. • 14. Rabbit polyclonal anti-phosphotyrosine serum (SUGEN, Inc.). • 15. Goat anti-rabbit IgG peroxidase conjugate (Biosource Cat. No. ALI0404). • 16. ABTS. • 17. 30% Hydrogen peroxide. • 18. ABTS/H2O2 • 19. 0.2 M HCl. Procedure: • 1. Coat Corning 96 well ELISA plates with 0.5 μg SUMO1 in 100 μl PBS per well, store overnight at 4° C. • 2. Remove unbound SUMO1 from wells by inverting plate to remove liquid. Wash 1×with dH2O. Pat the plate on a paper towel to remove excess liquid. • 3. Add 150 μl of Blocking Buffer to each well. Incubate, with shaking, for 30 min. at room temperature. • 4. Wash plate 3×with deionized water, then once with TBST. Pat plate on a paper towel to remove excess liquid and bubbles. • 5. Dilute lysate in PBS (7 μg lysate/100 μl PBS). • 6. Add 100 μl of diluted lysate to each well. Shake at room temperature for 1 hr. • 7. Wash plates as in 4, above. • 8. Add 120 μl TBS to ELISA plate containing captured EGFR. • 9. […] Add 13.5 μl diluted test compound to ELISA plate. To control wells, add 13.5 μl TBS in 10% DMSO. • 11. Incubate, with shaking, for 30 minutes at room temperature. • 12. Add 15 μl phosphorylation mix to all wells except negative control well. Final well volume should be approximately 150 μl with 3 μM ATP/5 mM MnCl2 final concentration in each well. Incubate with shaking for 5 minutes. • 13. Stop reaction by adding 16.5 μl of EDTA solution while shaking. Shake for additional 1 min. • 14. Wash 4×with deionized water, 2×with TBST. • 15. Add 100 μl anti-phosphotyrosine (1:3000 dilution in TBST) per well. Incubate, with shaking, for 30-45 min. at room temperature. • 16. Wash as in 4, above. • 17. […] Incubate with shaking for 30 min. at room temperature. • 18. Wash as in 4, above. • 19. Add 100 μl of ABTS/H2O2 solution to each well. • 20. Incubate 5 to 10 minutes with shaking. Remove any bubbles. • 21. If necessary, stop reaction by adding 100 μl 0.2 M HCl per well. • 22.
Procedure for GST-Flk1: This assay analyzes the tyrosine kinase activity of GST-Flk1 on poly(glu,tyr) peptides.
• 1. […] Preparation of poly(glu,tyr)(pEY) coated assay plates: Coat 2 ug/well of poly(glu,tyr)(pEY) in 100 ul PBS, hold at room temperature for 2 hours or at 4° C. overnight. Cover plates well to prevent evaporation. • 4. […] When all reagents have dissolved, adjust the pH to 7.2 with HCl. Bring total volume to 1 L with dH2O. • 5. PBST Buffer: to 1 L of PBS Buffer, add 1.0 ml Tween-20. • 6. […] Adjust pH to 7.2 with HCl. Add 10 g BSA, stir to dissolve. Bring total volume to 1 L with dH2O. Filter to remove particulate matter. • 7. […] Adjust total volume to 1 L with PBS buffer, filter to remove particulate matter. • 8. 50 mM Hepes pH 7.5. • 9. GST-Flk1cd purified from sf9 recombinant baculovirus transformation (SUGEN, Inc.). • 10. 4% DMSO in dH2O. • 11. 10 mM ATP in dH2O. • 12. 40 mM MnCl2 • 13. […] Add 10 N NaOH until EDTA dissolves. Adjust pH to 8.0. Adjust total volume to 100 ml with dH2O. • 16. […] Anti-phosphotyrosine monoclonal antibody conjugated to horseradish peroxidase (PY99 HRP, Santa Cruz Biotech). • 18. 2,2′-Azinobis(3-ethylbenzthiazoline-6-sulfonic acid (ABTS, Moss, Cat. No. ABST). • 19. 10% SDS. Procedure: • 1. Coat Corning 96-well ELISA plates with 2 μg of polyEY peptide in sterile PBS as described in step 3 of Materials and Reagents. • 2. Remove unbound liquid from wells by inverting plate. Wash once with TBST. Pat the plate on a paper towel to remove excess liquid. • 3. Add 100 μl of 1% BSA in PBS to each well. Incubate, with shaking, for 1 hr. at room temperature. • 4. Repeat step 2. • 5. Soak wells with 50 mM HEPES (pH 7.5) (150 μl/well). • 6. Dilute test compound with dH2O/4% DMSO to 4 times the desired final assay concentration in 96-well polypropylene plates. • 7. Add 25 μl diluted test compound to ELISA plate. In control wells, place 25 μl of dH2O/4% DMSO. • 8. […] Add 25 μl 0.5M EDTA to negative control wells. • 10. Dilute GST-Flk1 to 0.005 μg (5 ng)/well with KDB. • 11. Add 50 μl of diluted enzyme to each well. • 12. Incubate, with shaking, for 15 minutes at room temperature. • 13. […] Wash 3×with TBST and pat plate on paper towel to remove excess liquid. • 15. […] Incubate, with shaking, for 90 min. at room temperature. • 16. Wash as in step 14. • 17. Add 100 μl of room temperature ABTS solution to each well. • 18. […] Remove any bubbles. • 19. Stop reaction by adding 20 μl of 10% SDS to each well. • 20.
Procedure for Lewis Lung tumors: Mice were injected subcutaneously in the left paw (1×10^6 tumor cells suspended in 30% Matrigel) and tumor volume was evaluated using a phlethysmometer twice a week for 30-60 days. […] The data are expressed as the mean+/−SEM. Student's and Mann-Whitney tests were used to assess differences between means using the InStat software package. […] Analysis of lung metastasis was done in all the animals by counting metastasis in a stereomicroscope and by histochemical analysis of consecutive lung sections.
Procedure for human cdk2/cyclin A: Amersham Redivue [γ^33P] […] Amersham streptavidin coated polyvinyltoluene SPA beads (Amersham catalog #RPNQ0007). The beads should be reconstituted in PBS without magnesium or calcium, at 20 mg/ml. • 4. Activated cdk2/cyclin A enzyme complex purified from Sf9 cells (SUGEN, Inc.). • 5. Biotinylated peptide substrate (Debtide). […] The ultimate concentration per well will be 0.5 μM “cold” ATP, 0.1 μg Debtide and 0.2 μCi γ^33P ATP. • 7. […] 10 mM ATP in dH2O. • 9. 1M Tris, pH adjusted to 7.4 with HCl. • 10. 1M MgCl2. • 11. 1M DTT. • 12. […] 0.5M EDTA. • 14. […] Procedure: • 1. Prepare solutions of test compounds at 5×the desired final concentration in 5% DMSO. Add 10 ul to each well. For negative controls, use 10 ul 5% DMSO alone in wells. • 2. […] Add 20 ul enzyme to each well. • 4. Add 10 μL of 0.5 M EDTA to the negative control wells. • 5. To start kinase reaction, add 20 μL of peptide/ATP mixture to each well. • Incubate for 1 hr. without shaking. • 6. Add 200 μl stop solution to each well. • 7. Hold at least 10 min. • 8. […] Count plate using Trilux or similar reader.

With `Cc1ccc(-c2cc(C(F)(F)F)nn2-c2ccc(S(N)(=O)=O)cc2)cc1` [Celecoxib], in the test on Lewis Lung tumors (160 ppm in the diet), the “effect on lung metastasis” value is listed as “did not affect”. In addition, the “reduction of surface metastasis” value in the test on Lewis Lung tumors (480-3200 ppm in the diet) is on record as “more than 50%”. The “size of the metastasic lesions in the lung” value in the test with Lewis Lung tumors (histopathological analysis) is given as “dose-dependently reduced”. Further, the “tumor Volume” value in test [1] (10 ppm in the diet from day 10, day 14) was 0.124 mL; in test [1] (10 ppm in the diet from day 10, day 22), 0.25 mL; in test [1] (10 ppm in the diet from day 10, day 28), 0.36 mL; in test [1] (10 ppm in the diet from day 10, day 35) it was 0.57 mL; in test [1] (10 ppm in the diet from day 10, day 42), 0.89 mL; in test [1] (10 ppm in the diet from day 10, day 50), 1.49 mL. Besides, the “tumor Volume” value in test [1] (40 ppm in the diet from day 10, day 14) turned out to be 0.125 mL; in test [1] (40 ppm in the diet from day 10, day 22) it was 0.19 mL; in test [1] (40 ppm in the diet from day 10, day 28) it was 0.27 mL; in test [1] (40 ppm in the diet from day 10, day 35) it was 0.4 mL; in test [1] (40 ppm in the diet from day 10, day 42), 0.68 mL; in test [1] (40 ppm in the diet from day 10, day 50) it was 1.04 mL. The “tumor Volume” value in test [1] (160 ppm in the diet from day 10, day 14) amounted to 0.120 mL; in test [1] (160 ppm in the diet from day 10, day 22), 0.14 mL; in test [1] (160 ppm in the diet from day 10, day 28), 0.21 mL; in test [1] (160 ppm in the diet from day 10, day 35), 0.3 mL; in test [1] (160 ppm in the diet from day 10, day 42) it was 0.49 mL; in test [1] (160 ppm in the diet from day 10, day 50), 0.8 mL. Moreover, in test [1] (celecoxib in the diet, cytoxin i.p. 50 mg/kg on days 5, 7 and 9), the “effect in combination with a cytotoxic agent (cyclophosphamide)” value is listed as “positive benefit”.

For `CCN(CC)CCCNC(=O)c1[nH]c(/C=C2\C(=O)Nc3ccc(OC)cc32)cc1C` [Example 15, 5-(5-Methoxy-2-oxo-1,2-dihydroindol-3-ylidenemethyl)-3-methyl-1H-pyrrole-2-carboxylic Acid (3-diethylamino-propyl)amide], the results for the IC50 (at GST-Flk1; at EGFR (A431 cell lysate); in test [2]) were greater than 20 µM, greater than 100 µM and greater than 100 µM, respectively.

For `CCN(CC)CCCNC(=O)c1[nH]c(/C=C2\C(=O)Nc3cc(OC)ccc32)cc1C` [Example 16, 5-(6-Methoxy-2-oxo-1,2-dihydroindol-3-ylidenemethyl)-3-methyl-1H-pyrrole-2-carboxylic Acid (3-diethylamino-propyl)amide], the figures for the IC50 against GST-Flk1 and at EGFR (A431 cell lysate) were greater than 20 µM and greater than 100 µM, respectively.

Turning to `Cc1c(C(=O)NCCCN2CCOCC2)[nH]c(/C=C2\C(=O)Nc3ccc(Br)cc32)c1C(=O)c1ccccc1` [Example 22, 4-Benzoyl-5-(5-bromo-2-oxo-1,2-dihydroindol-3-ylidenemethyl)-3-methyl-1H-pyrrole-2-carboxylic Acid (3-morpholin-4-ylpropyl)amide], the IC50 on GST-Flk1 was greater than 20 µM; on EGFR (A431 cell lysate), greater than 100 µM; in test [2], greater than 100 µM.

Turning to `CC(=O)c1c(/C=C2\C(=O)Nc3ccc(Br)cc32)[nH]c(C(=O)NCCCN2CCOCC2)c1C` [Example 31, 4-Acetyl-5-(5-bromo-2-oxo-1,2-dihydroindol-3-ylidenemethyl)-3-methyl-1H-pyrrole-2-carboxylic Acid (3-morpholin-4-ylpropyl)amide], the IC50 on GST-Flk1 was greater than 50 µM; in test [2], greater than 100 µM.

For the compound `COc1ccccc1-c1ccc2c(c1)NC(=O)/C2=C\c1[nH]c(C)c(C(=O)NCCN(C)C)c1-c1ccccc1` [Example 45, 5-[6-(2-Methoxyphenyl)-2-oxo-1,2-dihydroindol-3-ylidenemethyl]-2-methyl-4-phenyl-1H-pyrrole-3-carboxylic Acid (2-dimethylaminoethyl)amide], the IC50 (on EGFR (A431 cell lysate); in test [3]; in test [2]) was greater than 100 µM in each case.

On to `CCN(CC)CCCNC(=O)c1c(C)[nH]c(/C=C2\C(=O)Nc3ccc(Br)cc32)c1-c1ccccc1` [Example 47, 5-(5-Bromo-2-oxo-1,2-dihydroindol-3-ylidenemethyl)-2-methyl-4-phenyl-1H-pyrrole-3-carboxylic Acid (3-diethylaminopropyl)amide], for which, at human cdk2/cyclin A, the IC50 was greater than 20 µM.

Take `Cc1[nH]c(/C=C2\C(=O)Nc3cc(-c4ccccc4)ccc32)c(C)c1C(=O)NCCN(C)C` [Example 49, 2,4-Dimethyl-5-(2-oxo-6-phenyl-1,2-dihydroindol-3-ylidenemethyl)-1H-pyrrole-3-carboxylic Acid (2-dimethylaminoethyl)amide]: the IC50 at EGFR (A431 cell lysate) is greater than 100 µM; in test [3], greater than 100 µM; in test [2] it was less than 0.78 µM.

Consider `Cc1[nH]c(/C=C2\C(=O)Nc3ccc(Cl)cc32)c(C)c1C(=O)NCCN(C)C` [Example 50, 5-(5-Chloro-2-oxo-1,2-dihydroindol-3-ylidenemethyl)-2,4-dimethyl-1H-pyrrole-3-carboxylic Acid (2-dimethylamino-ethyl)amide], for which the IC50 is greater than 100 µM on EGFR (A431 cell lysate), greater than 100 µM in test [3] and less than 0.78 µM in test [2].

Take `Cc1[nH]c(/C=C2\C(=O)Nc3ccc(-c4ccccc4)cc32)c(C)c1C(=O)NCCCn1ccnc1` [Example 58, 2,4-Dimethyl-5-(2-oxo-5-phenyl-1,2-dihydroindol-3-ylidenemethyl)-1H-pyrrole-3-carboxylic Acid (3-imidazol-1-ylpropyl)amide]: the IC50 (against EGFR; at EGFR (A431 cell lysate); in test [3]) was greater than 100 µM in each case.

Turning to `CCN(CC)CCNC(=O)c1c(C)[nH]c(/C=C2\C(=O)Nc3cc(-c4cc(Cl)cc(Cl)c4)ccc32)c1C` [Example 62, 5-[6-(3,5-Dichlorophenyl)-2-oxo-1,2-dihydroindol-3-ylidenemethyl]-2,4-dimethyl-1H-pyrrole-3-carboxylic Acid (2-diethylaminoethyl)amide], the IC50 (against EGFR; at EGFR (A431 cell lysate); in test [3]) was greater than 100 µM each time.

Consider `CCN(CC)CCNC(=O)c1c(C)[nH]c(/C=C2\C(=O)Nc3cc(-c4cccnc4)ccc32)c1C` [Example 63, 2,4-Dimethyl-5-(2-oxo-6-pyridin-3-yl-1,2-dihydroindol-3-ylidenemethyl)-1H-pyrrole-3-carboxylic Acid (2-diethylaminoethyl)amide], for which the IC50 is greater than 100 µM at EGFR, greater than 100 µM in test [3] and less than 0.78 µM in test [2].

On to `CNS(=O)(=O)c1ccc2c(c1)/C(=C/c1[nH]cc(C(=O)O)c1C)C(=O)N2` [Example 115, 4-Methyl-5-(5-methylsulfamoyl-2-oxo-1,2-dihydro-indol-3-ylidenemethyl)-1H-pyrrole-3-carboxylic Acid], for which the IC50 on GST-Flk1 is 7.3 µM; on human cdk2/cyclin A, 0.006 µM; in test [3], greater than 100 µM; in test [2], 7.48 µM.

With `CCOC(=O)CNC(=O)c1c[nH]c(/C=C2\C(=O)Nc3ccc(S(=O)(=O)NC)c(C)c32)c1C` [Example 116, {[4-Methyl-5-(4-methyl-5-methylsulfamoyl-2-oxo-1,2-dihydro-indol-3-ylidenemethyl)-1H-pyrrole-3-carbonyl]-amino}-acetic Acid Ethyl Ester], the IC50 at GST-Flk1 was greater than 20 µM; at human cdk2/cyclin A, less than 0.0005 µM; in test [3], greater than 100 µM; in test [2] it was greater than 100 µM.

With `CCOC(=O)CNC(=O)c1c[nH]c(/C=C2\C(=O)Nc3ccc(S(=O)(=O)NC)cc32)c1C` [Example 117, {[4-Methyl-5-(5-methylsulfamoyl-2-oxo-1,2-dihydro-indol-3-ylidenemethyl)-1H-pyrrole-3-carbonyl]-amino}-acetic Acid Ethyl Ester], the IC50 (at EGFR (A431 cell lysate); in test [3]) was greater than 100 µM throughout.

With `CNS(=O)(=O)c1ccc2c(c1)/C(=C/c1[nH]cc(C(=O)NCC(=O)O)c1C)C(=O)N2` [Example 118, {[4-Methyl-5-(5-methylsulfamoyl-2-oxo-1,2-dihydro-indol-3-ylidenemethyl)-1H-pyrrole-3-carbonyl]-amino}-acetic Acid], the IC50 is 1.93 µM on GST-Flk1, 0.002 µM on human cdk2/cyclin A, greater than 100 µM in test [3] and 1.2 µM in test [2].
